Legend:
Format in all cases: cell-based
Vibrio salmonicidia = assay: Minimal inhibitory concentration, Vibrio salmonicidia
[1] = test system: Vibrio anguillarum, serotype 1; assay: Minimal inhibitory concentration, Vibrio anguillarum, serotype 1
[2] = test system: Yersinia ruckeri, serotype 2; assay: Minimal inhibitory concentration, Yersinia ruckeri, serotype 2
[3] = test system: Yersinia ruckeri, serotype 3; assay: Minimal inhibitory concentration, Yersinia ruckeri, serotype 3

CC1CCc2cc(F)cc3c(=O)c(C(=O)O)cn1c23 (centres unmarked) [Flumequine, flumequine] was tested, and the “Minimal Inhibitory Concentration” value (Vibrio salmonicidia) was 0.035, the “Minimal Inhibitory Concentration” value [1] was 0.035 and the “Minimal Inhibitory Concentration” value [2] was 1.2. The “Minimal Inhibitory Concentration” value [3] was 0.25.
CCn1cc(C(=O)O)c(=O)c2cc3c(cc21)OCO3 [Oxolinic Acid, oxolinic acid] was tested, and the “Minimal Inhibitory Concentration” value (Vibrio salmonicidia) was 0.07, the “Minimal Inhibitory Concentration” value [1] was 0.035 and the “Minimal Inhibitory Concentration” value [2] was 1.0. For the same compound, the “Minimal Inhibitory Concentration” value [3] was 0.25.

— patent US5169634A, “Pharmaceutical dosage form for the medication of fish” (priority 1988, dated 1992)
